Source: patent US6784137B2, “6-aryl-4-aminopicolinates and their use as herbicides” (Dow AgroSciences LLC, priority 2001, dated 2004)
Like-named read-outs stand apart in the source and are kept apart here. Blank lines part the entries; values can stand above or below the compound they belong to.

Experiments:
[1] = system: Barnyardgrass (Echinochloa crus-galli); assay: Postemergence herbicidal activity, greenhouse spray; format: in vivo; details: Echinochloa crus-galli, post-emergence, 336 h, visual score after 2 weeks, read-out: Post-emergent % control ECHCG; for pest or weed control at 500 ppm: rate 500 ppm; for pest or weed control at 125 ppm: rate 125 ppm; for pest or weed control at 250 ppm: rate 250 ppm
Method in brief: (§1)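 Postemergence application by compressed-air atomizer ([…]) onto plants at the 1-2 true leaf stage; rates set by serial dilution of acetone:DMSO stock into the spray carrier. Plants were kept in a greenhouse with ~15 hr photoperiod and sub-irrigated.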

[2] = system: Cocklebur (Xanthium strumarium); assay: as above; format: in vivo; details: Xanthium strumarium, post-emergence, 336 h, visual score after 2 weeks, read-out: Post-emergent % control XANST; for pest or weed control at 500 ppm: rate 500 ppm, 0 no injury, 100 complete kill; for pest or weed control at 125 ppm: rate 125 ppm; for pest or weed control at 250 ppm: rate 250 ppm
Method in brief: as §1

[3] = system: Lambsquarter (Chenopodium album); assay: as above; format: in vivo; details: Chenopodium album, post-emergence, 336 h, visual score after 2 weeks, read-out: Post-emergent % control CHEAL; for pest or weed control at 500 ppm: rate 500 ppm; for pest or weed control at 125 ppm: rate 125 ppm; for pest or weed control at 250 ppm: rate 250 ppm
Method in brief: as §1

[4] = system: Yellow nutsedge (Cyperus esculentus); assay: as above; format: in vivo; details: Cyperus, post-emergence, 336 h, visual score after 2 weeks, read-out: Post-emergent % control CYPES; for pest or weed control at 500 ppm: rate 500 ppm; for pest or weed control at 125 ppm: rate 125 ppm; for pest or weed control at 250 ppm: rate 250 ppm
Method in brief: as §1

[5] = system: Crabgrass(large) (Digitaria sanguinalis); assay: Preemergence herbicidal activity, soil spray; format: in vivo; details: Digitaria sanguinalis, pre-emergence, 504 h, Table 5, visual score after 3 weeks, read-out: Pre-emergent % control DIGSA; for pest or weed control at 140 ppm: rate 140 ppm; for pest or weed control at 560 ppm: rate 560 ppm
Excerpt: (§2) Seeds of the desired test plant species were planted in a soil matrix prepared by mixing a loam soil (43 percent silt, 19 percent clay, and 38 percent sand, with a pH of about 8.1 and an organic matter content of about 1.5 percent) and sand in a 70 to 30 ratio. The soil matrix was contained in plastic pots with a surface area of 113 square centimeters. When required to ensure good germination and healthy plants, a fungicide treatment and/or other chemical or physical treatment was applied. A weighed amount, determined by the highest rate to be tested, of each test compound was placed in a 20 mL glass vial and was dissolved in 4 mL of a 97:3 v/v (volume/volume) mixture of acetone and dimethyl sulfoxide to obtain concentrated stock solutions. […] The stock solutions obtained were diluted with a 99.9:0.1 mixture of water and Tween® 155 surfactant to obtain application solutions of known concentration. The solutions containing the highest concentration to be tested were prepared by diluting 2 mL aliquots of the stock solution with 15 mL of the mixture and lower concentrations were prepared by serial dilution of the stock solution. A 2.5 mL aliquot of each solution of known concentration was sprayed evenly onto the soil surface (113 sq. cm) of each seeded pot using a Cornwall 5.0 mL glass syringe fitted with a TeeJet TN-3 hollow cone nozzle to obtain thorough coverage of the soil in each pot. Control pots were sprayed in the same manner with the aqueous mixture. The treated pots and control pots were placed in a greenhouse maintained with an approximate 15 hr photoperiod and temperatures of about 23-29° C. during the day and 22-28° C. during the night. Nutrients and water were added on a regular basis and supplemental lighting was provided with overhead metal halide 1000-Watt lamps as necessary. The water was added by top-irrigation.

[6] = system: Giant Foxtail (Setaria faberi); assay: Preemergence herbicidal activity, soil spray; format: in vivo; details: Setaria faberi, pre-emergence, 504 h, Table 5, visual score after 3 weeks, read-out: Pre-emergent % control SETFA; for pest or weed control at 140 ppm: rate 140 ppm; for pest or weed control at 560 ppm: rate 560 ppm
Excerpt: as §2

[7] = system: Lambsquarter (Chenopodium album); assay: Preemergence herbicidal activity, soil spray; format: in vivo; details: Chenopodium album, pre-emergence, 504 h, Table 5, visual score after 3 weeks, read-out: Pre-emergent % control CHEAL; for pest or weed control at 140 ppm: rate 140 ppm; for pest or weed control at 560 ppm: rate 560 ppm, 100 complete kill or no germination
Excerpt: as §2

[8] = system: Pigweed (redroot) (Amaranthus retroflexus); assay: Preemergence herbicidal activity, soil spray; format: in vivo; details: Amaranthus retroflexus, pre-emergence, 504 h, Table 5, visual score after 3 weeks, read-out: Pre-emergent % control AMARE; for pest or weed control at 140 ppm: rate 140 ppm; for pest or weed control at 560 ppm: rate 560 ppm
Excerpt: as §2

SMILES: Nc1cc(-c2ccc(Cl)c(Cl)c2)nc(C(=O)O)c1Cl [Compound 150, 4-Amino-3-chloro-6-(3,4-dichlorophenyl)pyridine-2-carboxylic acid]
pest or weed control at 500 ppm ([1]; Table 1): 95% | pest or weed control at 500 ppm ([2]; Table 1): 100% | pest or weed control at 500 ppm ([3]; Table 1): 100% | pest or weed control at 500 ppm ([4]; Table 1): 95% | pest or weed control at 140 ppm [5]: 90% | pest or weed control at 140 ppm [6]: 100% | pest or weed control at 140 ppm [7]: 100% | pest or weed control at 140 ppm [8]: 100% | melting point: 185 to 186 °C

SMILES: COC(=O)c1nc(-c2ccc(Cl)cc2F)c(F)c(N)c1F [Compound 93, Methyl 4-amino-3,5-difluoro-6-(4-chloro-2-fluorophenyl)pyridine-2-carboxylate]
pest or weed control at 500 ppm ([1]; Table 1): 90% | pest or weed control at 500 ppm ([2]; Table 1): 100% | pest or weed control at 500 ppm ([3]; Table 1): 95% | pest or weed control at 500 ppm ([4]; Table 1): 80% | pest or weed control at 560 ppm [5]: 30% | pest or weed control at 560 ppm [6]: 50% | pest or weed control at 560 ppm [7]: 100% | pest or weed control at 560 ppm [8]: 100% | melting point: 182 to 183 °C

SMILES: COC(=O)c1nc(-c2ccc(C(F)(F)F)cc2)cc(N)c1Cl [Compound 28, Methyl 4-amino-3-chloro-6-[4-(trifluoromethyl)phenyl]pyridine-2-carboxylate]
pest or weed control at 250 ppm ([1]; Table 1): 75% | pest or weed control at 250 ppm ([2]; Table 1): 100% | pest or weed control at 250 ppm ([3]; Table 1): 100% | pest or weed control at 250 ppm ([4]; Table 1): 80% | pest or weed control at 560 ppm [5]: 100% | pest or weed control at 560 ppm [6]: 100% | pest or weed control at 560 ppm [7]: 100% | pest or weed control at 560 ppm [8]: 100% | melting point: 149 °C

SMILES: COC(=O)c1nc(-c2ccc(Cl)cc2)c(F)c(N)c1F [Compound 90, Methyl 4-amino-3,5-difluoro-6-(4-chlorophenyl)pyridine-2-carboxylate]
pest or weed control at 500 ppm ([1]; Table 1): 98% | pest or weed control at 500 ppm ([2]; Table 1): 100% | pest or weed control at 500 ppm ([3]; Table 1): 100% | pest or weed control at 500 ppm ([4]; Table 1): 90% | pest or weed control at 560 ppm [5]: 100% | pest or weed control at 560 ppm [6]: 100% | pest or weed control at 560 ppm [7]: 100% | pest or weed control at 560 ppm [8]: 100% | melting point: 165 to 166 °C

SMILES: COC(=O)c1nc(-c2ccc(Cl)cc2Cl)cc(N)c1Cl [Compound 13, Methyl 4-amino-3-chloro-6-(2,4-dichlorophenyl)pyridine-2-carboxylate]
pest or weed control at 250 ppm ([1]; Table 1): 70% | pest or weed control at 250 ppm ([2]; Table 1): 100% | pest or weed control at 250 ppm ([3]; Table 1): 100% | pest or weed control at 250 ppm ([4]; Table 1): 80% | pest or weed control at 560 ppm [5]: 90% | pest or weed control at 560 ppm [6]: 100% | pest or weed control at 560 ppm [7]: 100% | pest or weed control at 560 ppm [8]: 100% | melting point: 130 to 131 °C

SMILES: COC(=O)c1nc(-c2cccc(Cl)c2)cc(N)c1Cl [Compound 27, Methyl 4-amino-3-chloro-6-(3-chlorophenyl)pyridine-2-carboxylate]
pest or weed control at 250 ppm ([1]; Table 1): 70% | pest or weed control at 250 ppm ([2]; Table 1): 95% | pest or weed control at 250 ppm ([3]; Table 1): 95% | pest or weed control at 250 ppm ([4]; Table 1): 60% | pest or weed control at 560 ppm [5]: 100% | pest or weed control at 560 ppm [6]: 100% | pest or weed control at 560 ppm [7]: 100% | pest or weed control at 560 ppm [8]: 100% | melting point: 141 °C

SMILES: COC(=O)c1nc(-c2ccc(C)cc2)c(F)c(N)c1F [Compound 91, Methyl 4-amino-3,5-difluoro-6-(4-methylphenyl)pyridine-2-carboxylate]
pest or weed control at 500 ppm ([1]; Table 1): 90% | pest or weed control at 500 ppm ([2]; Table 1): 100% | pest or weed control at 500 ppm ([3]; Table 1): 100% | pest or weed control at 500 ppm ([4]; Table 1): 80% | pest or weed control at 560 ppm [5]: 100% | pest or weed control at 560 ppm [6]: 60% | pest or weed control at 560 ppm [7]: 90% | pest or weed control at 560 ppm [8]: 100% | melting point: 145 to 146 °C

The next lines start with results.

melting point: 154 to 155 °C
SMILES: Nc1c(F)c(-c2ccc(Cl)cc2F)nc(C(=O)O)c1Cl [Compound 189, 4-Amino-3-chloro-5-fluoro-6-(4-chloro-2-fluorophenyl)pyridine-2-carboxylic acid]
pest or weed control at 125 ppm ([1]; Table 2): 90% | pest or weed control at 125 ppm ([2]; Table 2): 90% | pest or weed control at 125 ppm ([3]; Table 2): 90% | pest or weed control at 125 ppm ([4]; Table 2): 90% | pest or weed control at 140 ppm [5]: 100% | pest or weed control at 140 ppm [6]: 100% | pest or weed control at 140 ppm [7]: 100% | pest or weed control at 140 ppm [8]: 100%

melting point: 152 °C
SMILES: CCc1ccc(-c2cc(N)c(Cl)c(C(=O)O)n2)cc1 [Compound 175, 4-Amino-3-chloro-6-(4-ethylphenyl)pyridine-2-carboxylic acid]
pest or weed control at 500 ppm ([1]; Table 1): 80% | pest or weed control at 500 ppm ([2]; Table 1): 100% | pest or weed control at 500 ppm ([3]; Table 1): 99% | pest or weed control at 500 ppm ([4]; Table 1): 0% | pest or weed control at 140 ppm [5]: 100% | pest or weed control at 140 ppm [6]: 95% | pest or weed control at 140 ppm [7]: 100% | pest or weed control at 140 ppm [8]: 95%

melting point: 145 to 148 °C (dec.)
SMILES: Cc1ccc(-c2nc(C(=O)O)c(Cl)c(N)c2F)cc1 [Compound 163, 4-Amino-3-chloro-5-fluoro-6-(4-methylphenyl)pyridine-2-carboxylic acid]
pest or weed control at 250 ppm ([1]; Table 1): 70% | pest or weed control at 125 ppm ([1]; Table 2): 70% | pest or weed control at 250 ppm ([2]; Table 1): 100% | pest or weed control at 125 ppm ([2]; Table 2): 100% | pest or weed control at 250 ppm ([3]; Table 1): 95% | pest or weed control at 125 ppm ([3]; Table 2): 90% | pest or weed control at 250 ppm ([4]; Table 1): 70% | pest or weed control at 125 ppm ([4]; Table 2): 70% | pest or weed control at 140 ppm [5]: 100% | pest or weed control at 140 ppm [6]: 95% | pest or weed control at 140 ppm [7]: 100% | pest or weed control at 140 ppm [8]: 98%

melting point: 175 to 176 °C
SMILES: Nc1cc(-c2ccc(C(F)(F)F)cc2)nc(C(=O)O)c1Cl [Compound 152, 4-Amino-3-chloro-6-[4-(trifluoromethyl)phenyl]pyridine-2-carboxylic acid]
pest or weed control at 125 ppm ([1]; Table 1): 90% | pest or weed control at 125 ppm ([2]; Table 1): 100% | pest or weed control at 125 ppm ([3]; Table 1): 100% | pest or weed control at 125 ppm ([4]; Table 1): 95% | pest or weed control at 140 ppm [5]: 100% | pest or weed control at 140 ppm [6]: 100% | pest or weed control at 140 ppm [7]: 100% | pest or weed control at 140 ppm [8]: 95%
